Measurements taken from patent publication US10724101B2, “Biomarker SCNN1B for gastric cancer” (The Chinese University of Hong Kong, priority 2016, dated 2020).

Test system: gastric cancer cell lines (AGS, KATOIII, MGC803, MKN28, MKN45 and SNU1) with silenced SCNN1B expression
Test: Demethylation treatment with 5-Aza; SCNN1B expression by semiquantitative RT-PCR
Format: cell-based, human
Settings: 10 μM 5-Aza for 5 days; six cell lines with silenced SCNN1B; FIG. 4
Experimental: Semiquantitative RT-PCR was performed in a total volume of 25 μL reaction containing 1× Premix Ex Taq (Takara, Ohtsu, Japan) and 5-10 ng cDNA. The PCR program started with an initial denaturation at 95° C. for 10 min, followed by 27-35 cycles (95° C. for 30 sec, annealing temperature for 30 sec, and 72° C. for 30 sec) of amplification, with a final extension at 72° C. for 10 min. The PCR bands were visualized under ultraviolet light and photographed. The expression of the target gene was normalized by the expression of house-keeping gene β-actin, which served as an internal control.
Cells were seeded at a density of 1×10^5/100-mm dishes and grew for 24 hr. Cells were then treated with 10 μM 5-aza-2′-deoxycytidine (“5-Aza”) (Sigma-Aldrich) for 5 days. The 5-Aza was replenished every day. The gene expression of SCNN1B was evaluated using semiquantitative RT-PCR.

## Nc1ncn([C@H]2C[C@H](O)[C@@H](CO)O2)c(=O)n1 [5-Aza, 5-aza-2′-deoxycytidine]
  expression of SCNN1B after demethylation treatment: Restored expression of SCNN1B
